The values below come from publication PMC13223490, “New Indazole Derivatives as Potential Scaffolds for the Development of Anticancer, Antiviral, and Anti-tuberculosis Chemotherapeutic Compounds” (Current Medicinal Chemistry, 2025).

Data set [1] relates to M. tuberculosis. On the set-up: method as in PMID 37111241. The settings on record: cited from earlier work.
For data set [2], the system named is M. tuberculosis. The settings on record: cited from earlier work.
For data set [3], the system named is HL60 leukemia cells. The experiment in a line: Cytotoxicity on tumor cell cultures (resazurin, 48 h). The class given is cell-based. The settings on record: HL60, 48 h. On the procedure: (§1) The total well volume was 150 μl.
In general terms: Resazurin is reduced to fluorescent resorufin, in cell work by metabolically active cells.

Data set [4] has as its system SH-SY5Y neuroblastoma cells. Described as above. The data set is classed as cell-based. On the procedure:
as §1

Data set [5] has as its system K562 leukemia cells. The data set is described as above. The settings on record: K562, 48 h. The data set is classed as cell-based. The method, then: as §1
The subject of data set [6] is M. tuberculosis H37Rv. The experiment in a line: Bacteriostatic activity, proportion method, BACTEC MGIT 960, Middlebrook 7H9. The data set is classed as cell-based, Mycobacterium tuberculosis. The settings on record: for effect on growth of M. tuberculosis H37Rv culture, in words: up to the maximum tested concentration; for MIC50: 50% inhibition of mycobacterial growth.

Data set [7] deals with influenza virus A/California/7/2009 (H1N1)pdm09. The experiment in a line: microbe, parasite or virus in culture. The data set is classed as cell-based, human influenza virus A. To be noted: for SI (selectivity index): ratio of CD50 (CC50) to IC50, MDCK.
A short description of data set [8]: Cytotoxic effect in MDCK cell culture (MTS). To be noted: dog. The data set is classed as cell-based. On the procedure:
(§2) Multiple dilutions of solutions of all compounds were prepared in 24-well plates by titration into 8 wells, starting from a dilution of 1:10 to 1:1280. The resulting serial dilutions were transferred to the wells of the test plates with cells. Each point was tested in 4 parallel wells. The working medium was added to the wells of the cell control. […] Then, the culture medium was removed from the plates, and 100 μL of the medium and 20 μL of the MTS solution were added to the cell culture monolayer in each well. After incubation for 3 hours at 37°C, the results were recorded on a BIO-RAD automatic reader at a wavelength of 490 nm. Reference filter - 630 nm.
(§3) To obtain statistically reliable results, the experiments were performed 2-3 times. The values of CC50 and IC50 were calculated using generally accepted methods for biological research, as implemented in the Microsoft Excel 5.0 and GraphPad Prism 6.01 software packages. The working model for CC50 analysis was a 4-parameter logistic curve equation (menu items “Nonlinear regression” - “Sigmoidal dose-response (variable slope)”). For IC50 analysis, a 4-parameter logistic curve equation was adopted (menu items “Nonlinear regression” - “log (inhibitor) vs. response (variable slope)”). Based on the obtained data, the selectivity index (SI) was calculated using the equation: SI = CC50/ IC50.

Data set [9] has as its system GBM5522 low-passage primary glioblastoma multiforme cells. The experiment in a line: Cytotoxicity on tumor cell cultures (resazurin, 48 h).
Protocol: The low-passage primary glioblastoma multiforme cell culture GBM5522 was previously described [37]. Cells were cultured in DMEM (Servicebio) containing 10% fetal bovine serum (FBS) at 37°C in an atmosphere of 5% CO2. The cells were plated in 96-well plates at a density of 1x10^4 cells/well. The test substances were then added in concentrations ranging from 0.8 to 100 μM. DMSO at a concentration of 1% was used as a control, corresponding to the percentage of DMSO when the highest concentration of the drug was added. The total well volume was 150 μl. The cells were incubated for 48 hours at 37°C in a 5% CO2 atmosphere. Resazurin was added in a concentration of 10 μl of a 0.5 mg/mL solution in phosphate-buffered saline. The incubation was carried out under the same conditions for 4 hours, and then the fluorescence level was measured at an excitation wavelength of 560 nm and an emission wavelength of 590 nm using a CLARIOstar multimodal microplate reader (BMG Labtech, Germany). The data obtained for each concentration were normalized to the control, and the IC50 was calculated using the nonlinear regression method. The minimum number of repetitions for each concentration was three. The GraphPad Prism software v.9.5.1 (GraphPad Software, San Diego, USA) was used to calculate the IC50 and plot the percentage of living cells versus the concentration of the drug.
Data set [10] concerns SARS-CoV-2. The experiment in a line: microbe, parasite or virus in culture. To be noted: for IC50: Vero E6. The data set is classed as cell-based.
For data set [11], the system named is SH-SY5Y, K-562, HL-60, GBM5522 cells. The experiment in a line: Cytotoxicity screening, summary over the cancer cell panel. The class given is cell-based. The method, then:
as §1
Cytotoxicity screening of the synthesized indazole derivatives was performed on the cell line of neuroblastoma SH-SY5Y, lymphoblastic cells K-562, promyeloblastic cells HL-60, low-passage variant of highly differentiated multiform glioblastoma GBM5522 (Table 2).

Data set [12] has as its system continuous leukemia cell lines. Also on record: method as in PMID 28587395, PMID 11531262. To be noted: read-out: half-maximal effective concentrations; cited from earlier work.
Data set [13] relates to mouse. To be noted: mouse model studies; cited from earlier work.
Data set [14] relates to MDCK cells. The experiment in a line: Cytotoxic effect in MDCK cell culture (MTS). The data set is classed as cell-based. The settings on record: MDCK; concentration reducing the cell number by 50%. On the procedure: as §2, §3
Data set [15] relates to mycobacteria. Also on record: method as in PMID 27704782. To be noted: growth of mycobacteria; cited from earlier work.
Setting [16] is: Severe acute respiratory syndrome coronavirus 2, Vero C1008.
The mark [17] stands for this setting: Mycobacterium tuberculosis, H37RV, 75% inhibition of mycobacterial growth.
Where [18] appears, read: Mycobacterium tuberculosis, H37RV, read-out: MIC 50.
Where [19] appears, read: 75% inhibition of mycobacterial growth.

Values after ≈ are worked out from the molar mass of the structure shown. Values joined by “and” are separate entries in the source; they are usually repeats but may differ in a detail not shown here. Equal entries are not always repeated. “Also recorded” adds a separate entry of the source. Structures can show the parent of a compound that is named as a salt. Where two headings read alike, the source gives them in different places.

Consider `NNC(=O)c1ccncc1` [isoniazid], for which the minimum inhibitory concentration (MIC) – broadly, the smallest concentration in the dilution series that meets the test's criterion for growth inhibition – in [1] is 0.36 µM (≈ 0.0494 µg/mL). Besides, the critical concentration in data set [2] (control drugs) is 1 μg/mL and 0.73 µM.

As to `O=C(N/N=C/c1ccc2c[nH]nc2c1)c1ccncc1` [Compound 5], in data set [1], the minimum inhibitory concentration (MIC) is reported as 0.11 µM (≈ 0.0292 µg/mL).

In the case of `c1cncc(-c2ccc3[nH]ncc3c2)c1` [Compound 10, 5-(pyridin-3-yl)-1H-indazole], the IC50 (usually the concentration that gives 50% inhibition) is > 100 µM in data set [3] (Homo sapiens, HL-60); 14.3 ± 5 µM in data set [4] (Homo sapiens); 5.5 ± 1.5 µM in [5] (Homo sapiens); 25 µM in data set [7] (H1N1, MDCK); 95.4 ± 5.2 µM in [9] (48 h); > 25 µM in [10] (setting [16]). For the same compound, the “effect on growth of M. tuberculosis H37Rv culture, in words” value (shortened to “effect on growth”) in data set [6] was “did not affect the growth; also recorded: completely devoid of the ability to suppress the growth of mycobacteria”. Also, the figures for the Δlgmax in data set [7] and in data set [10] were 1.5 and 0.75, respectively. In addition, in [7] (MDCK cell culture), the “maximum reduction of the infectious titer” value was determined as 1.5 logTCID50. Further, the “SI (selectivity index)” value in data set [7] is reported as 24,4. In addition, the CC50 (usually the concentration that lowers cell viability or growth by half) at 66 h in data set [8] is 610 µM.

Consider `CO[C@H]1/C=C/O[C@@]2(C)Oc3c(C)c(O)c4c(O)c(c(/C=N/N5CCN(C)CC5)c(O)c4c3C2=O)NC(=O)/C(C)=C\C=C\[C@H](C)[C@H](O)[C@@H](C)[C@@H](O)[C@@H](C)[C@H](OC(C)=O)[C@@H]1C` [rifampicin], for which the critical concentration in data set [2] (control drugs) is 0.5 μg/mL and 0.61 µM.

For the compound `CCOC(=O)C1=C[C@@H](OC(CC)CC)[C@H](NC(C)=O)[C@@H](N)C1` [Oseltamivir, (3R,4R,5S)-4-acetamido-5-amino-3-(1-ethylpropo-xy)-1-cyclohexene-1-carboxylic acid ethyl ester phosphate salt, reference compound], in data set [7], the Δlgmax is given as 6.0. In [7] (H1N1, MDCK), this compound had an IC50 of 0.61 µM. Moreover, the CC50 at 66 h in data set [8] is 820 µM.

Consider `NC(=O)c1cnccn1` [pyrazinamide], for which the critical concentration in data set [2] is 100 μg/mL and 812 µM.

Regarding `c1ncc(-c2ccc3[nH]ncc3c2)cn1` [Compound 9, 5-(pyrimidin-5-yl)-1H-indazole], the IC50 in [3] (Homo sapiens, HL-60) is > 100 µM; in data set [4] (Homo sapiens), > 100 µM; in data set [5] (Homo sapiens), > 100 µM; in data set [7] (H1N1, MDCK), > 100 µM; in data set [9] (48 h) it was > 100 µM; in data set [10] (setting [16]), > 50 µM. Further, in data set [6] (setting [17]), the MIC is 40 µg/mL and 204 µM. For the same compound, in data set [6] (setting [18]), the MIC50 is 40 µg/mL and 204 µM. Further, the “effect on growth” value in data set [6] is reported as “best antibacterial activity”. The cytotoxicity in words result in [11] was “inactive”. Also, the Δlgmax in data set [7] came out at 1.0; in data set [10] it was 0. Besides, in data set [7], the “SI (selectivity index)” value is on record as <10. The compound also yielded a half-maximal cytotoxic concentration (CC50) at 66 h in [8] of 1050 µM.

In the case of `COc1cc([C@@H]2c3cc4c(cc3[C@@H](O[C@@H]3O[C@@H]5CO[C@@H](C)O[C@H]5[C@H](O)[C@H]3O)[C@H]3COC(=O)[C@H]23)OCO4)cc(OC)c1O` [etoposide], the EC50 in data set [12] was 10 to 100 µM. Moreover, the nonlethal doses in data set [13] is ~ 50 mg/kg.

With “6-(cyclopenten-1-en-1-yl)-1H-indazole [Compound 12]”, the concentration for half-maximal inhibition (IC50) was > 100 µM in data set [3]; > 100 µM in data set [4]; 22.3 ± 4.3 µM in [5]; > 2 µM in data set [7] (read-out: IC50); > 100 µM in [9] (GBM5522, 48 h); > 3 µM in data set [10]. In addition, the “MIC50” value stood at 40 µg/mL in data set [6] and 217 µM in data set [6] (read-out: MIC 50). The compound further had an MIC in data set [6] (setting [19]) of 217 µM. Besides, in data set [6] (setting [19]), the “MIC 75” value was 40 µg/mL. Moreover, in [6], the “effect on growth” value is on record as “best antibacterial activity”. Also, in data set [11] (cancer cell lines panel), the cytotoxicity in words entry is “inactive”. For the same compound, the Δlgmax in [7] is reported as 0.25; in data set [10], 0.5. In addition, the CC50 in [14] turned out to be 4 µM.

On to `c1ncc(-c2ccc3cn[nH]c3c2)cn1` [Compound 11, 6-(pyrimidin-5-yl)-1H-indazole], for which the IC50 was > 100 µM in data set [3] (Homo sapiens, HL-60); > 100 µM in data set [4] (Homo sapiens); > 100 µM in data set [5] (Homo sapiens); > 200 µM in [7] (H1N1, MDCK); > 100 µM in data set [9] (48 h); > 200 µM in [10] (setting [16]). For the same compound, the MIC50 in data set [6] (setting [18]) is 60 µg/mL and 306 µM. Also, the cytotoxicity in words result in data set [11] is “inactive”. For the same compound, the Δlgmax in [7] was found to be 0.5; in data set [10], 0. The “SI (selectivity index)” value in data set [7] was <5. Also, the CC50 at 66 h in data set [8] was determined as 1120 µM.

With `Cc1n[nH]c(C)c1S(=O)(=O)Nc1ccc2cn[nH]c2c1` [Compound 4, N-(1H-indazol-6-yl)-3,5-dimethyl-1H-pyrazole-4-sulfonamide], in [15], the MIC is 2 µM (≈ 0.583 µg/mL).

With `c1cc2[nH]ncc2cc1-c1cn[nH]c1` [Compound 7, 5-(1H-pyrazol-4-yl)-1H-indazole], the IC50 in [3] (Homo sapiens, HL-60) was 23.7 ± 5 µM; in [4] (Homo sapiens), 15.5 ± 5.3 µM; in data set [5] (Homo sapiens), 24.4 ± 3.1 µM; in data set [7] (H1N1, MDCK), > 20 µM; in data set [9] (48 h) it was 36.8 ± 2 µM; in [10] (setting [16]), > 50 µM. Moreover, the minimal inhibitory concentration (MIC) in [6] (setting [17]) is 60 µg/mL and 326 µM. Besides, the MIC50 in data set [6] (setting [18]) was 40 µg/mL and 217 µM. For the same compound, the figures for the Δlgmax in data set [7] and in [10] were 0 and 0.25, respectively. For the same compound, the “SI (selectivity index)” value in [7] is recorded as <5. The compound also registered a CC50 at 66 h in [8] of 100 µM.
